Data on one molecule can be found in patent US20100291706A1, “DYE CONJUGATES AND METHODS OF USE” (Millipore Corporation, priority 2009, published 2010).

A short description of this data set: Absorbance spectra of cyanine dye stocks. It counts as physicochemical. The note with it: free dye. On the procedure:
Phycoerythrin conjugates: NGyS, NGy7 and Gy5 dye stocks are resuspended, their absorbances determined and their concentrations calculated. Phycoerythrin (PE) aliquots (2 nmoles) are treated in 0.5 M sodium carbonate pH 9.0 for 1.5 hr at room temperature with: a) 1:15, 1:30, 1:50 or 1:80 fold molar excesses of NGyS; b) 1:15 or 1:30 fold molar excesses of NGy7; or c) 1:30 or 1:50 molar excesses of Gy5. After conjugation, each reaction mixture is loaded on a PD-10 column and eluted with PBS. Fractions containing protein are pooled together for each mixture. Absorbance and fluorescence spectra of the products are obtained and energy transfer efficiency assessed.
Streptavidin conjugates: The concentration of a dye solution is determined through absorbance readings of appropriate dye dilutions. Streptavidin is treated with a molar excess (e.g., 20 fold excess) of dye in sodium carbonate buffer (pH 9.0) for one hour. After conjugation, the mixture is purified on a PD-10 column using PBS as an eluent buffer, and 0.5 mL fractions are collected. Major fractions containing the streptavidin-dye conjugate are pooled together and absorbance and emission spectra are acquired.

Each structure is given as a SMILES string.

Take `CCN1C(=CC=CC=CC=CC2=[N+](CCCCCC(=O)O)c3ccc(S(=O)(=O)O)cc3C2(C)C)C(C)(C)c2cc(S(=O)(=O)[O-])ccc21` [Cy7]: the absorption maximum came to 751.8 nm.
